Experimental findings from ChEMBL document CHEMBL3045838, “Synthesis, antimicrobial and antioxidant activities of 2-[1-{3,5-diaryl-4,5-dihydro-1H-pyrazolenyl}]-4-(4-nitrophenyl)-[1,3]-thiazoles” (2013) are described below.

Holding throughout (assay type): functional
The subject of assay [1] is Talaromyces marneffei. The assay can be described thus: Antifungal activity against Talaromyces marneffei assessed as growth inhibition by serial plate dilution method.
Assay [2] has as its system Pseudomonas aeruginosa. The assay can be described thus: Antibacterial activity against Pseudomonas aeruginosa ATCC 27853 assessed as growth inhibition by serial plate dilution method.
Assay [3] concerns Radical scavenging activity. In words: Antioxidant activity assessed as inhibition of DPPH radical generation at 4000 ug/mL after 15 min by UV-Vis spectrophotometric analysis relative to control. The settings on record: at 4000 µg/mL. (The DPPH test is a chemical assay of radical scavenging.)
The test system of assay [4] is Staphylococcus aureus. The assay can be described thus: Antibacterial activity against Staphylococcus aureus ATCC 25923 assessed as growth inhibition at 1.56 to 25 ug/mL.
Assay [5] deals with Klebsiella pneumoniae. In words: Antibacterial activity against Klebsiella pneumoniae assessed as growth inhibition at 1.56 to 25 ug/mL.
Assay [6] relates to Talaromyces marneffei. The assay can be described thus: Antifungal activity against Talaromyces marneffei assessed as growth inhibition at 1.56 to 25 ug/mL.
In assay [7] the test system is Staphylococcus aureus. In words: Antibacterial activity against Staphylococcus aureus ATCC 25923 assessed as growth inhibition by serial plate dilution method.
Assay [8] concerns Trichophyton mentagrophytes. In words: Antifungal activity against Trichophyton mentagrophytes assessed as growth inhibition by serial plate dilution method.
Assay [9] relates to Trichophyton mentagrophytes. In words: Antifungal activity against Trichophyton mentagrophytes assessed as growth inhibition at 1.56 to 25 ug/mL.
Assay [10] concerns Aspergillus fumigatus. In words: Antifungal activity against Aspergillus fumigatus NCIM 902 assessed as growth inhibition at 1.56 to 25 ug/mL.
The test system of assay [11] is Escherichia coli. In words: microbe, parasite or virus in culture. The settings on record: ATCC 25922.
Description: Antibacterial activity against Escherichia coli ATCC 25922 assessed as growth inhibition by serial plate dilution method
For assay [12], the system named is Klebsiella pneumoniae. In words: Antibacterial activity against Klebsiella pneumoniae assessed as growth inhibition by serial plate dilution method.
Assay [13] has as its system Aspergillus flavus. In words: Antifungal activity against Aspergillus flavus NCIM 524 assessed as growth inhibition by serial plate dilution method.
Assay [14] relates to Pseudomonas aeruginosa. The assay can be described thus: Antibacterial activity against Pseudomonas aeruginosa ATCC 27853 assessed as growth inhibition at 1.56 to 25 ug/mL.
In assay [15] the test system is Escherichia coli. The assay can be described thus: Antibacterial activity against Escherichia coli ATCC 25922 assessed as growth inhibition at 1.56 to 25 ug/mL.
The test system of assay [16] is Aspergillus fumigatus. In words: Antifungal activity against Aspergillus fumigatus NCIM 902 assessed as growth inhibition by serial plate dilution method.
Assay [17] concerns Aspergillus flavus. In words: Antifungal activity against Aspergillus flavus NCIM 524 assessed as growth inhibition at 1.56 to 25 ug/mL.

In brackets after ≈: the same amount, converted by molar mass.

In the case of `COc1ccc(C2=NN(c3nc(-c4ccc([N+](=O)[O-])cc4)cs3)C(c3ccc(-c4ccc(Br)cc4)o3)C2)cc1OC` (stereo not drawn), the MIC (in the assay on Talaromyces marneffei [1]; with Pseudomonas aeruginosa [2]; in the assay with Staphylococcus aureus [7]; in assay [8]; in the assay on Escherichia coli [11]; with Klebsiella pneumoniae [12]) was 12.5 µg/mL (≈ 19.8 µM) each time. In addition, the MIC with Aspergillus flavus [13] and in the assay on Aspergillus fumigatus [16] was 12.5 µg/mL (≈ 19.8 µM) in each case. Also, the inhibition in assay [3] is 69%. The “diameter of the inhibition zone (DIZ)” value (in the assay with Staphylococcus aureus [4]; with Klebsiella pneumoniae [5]; in the assay with Talaromyces marneffei [6]; in assay [9]; in the assay on Aspergillus fumigatus [10]; with Pseudomonas aeruginosa [14]) was 11 mm in each case. Besides, the “diameter of the inhibition zone (DIZ)” value with Escherichia coli [15] and in the assay with Aspergillus flavus [17] was 11 mm each time.

With `COc1ccc(C2=NN(c3nc(-c4ccc([N+](=O)[O-])cc4)cs3)C(c3ccc(-c4ccc(Cl)cc4[N+](=O)[O-])o3)C2)cc1OC` (stereo not drawn), the MIC (with Talaromyces marneffei [1]; in the assay with Pseudomonas aeruginosa [2]; in the assay on Staphylococcus aureus [7]; in assay [8]; with Escherichia coli [11]; with Klebsiella pneumoniae [12]) was 12.5 µg/mL (≈ 19.8 µM) each time. The MIC in the assay on Aspergillus flavus [13] and with Aspergillus fumigatus [16] was 12.5 µg/mL (≈ 19.8 µM) throughout. In addition, the inhibition in assay [3] worked out at 82%. In addition, the “diameter of the inhibition zone (DIZ)” value (in the assay on Staphylococcus aureus [4]; with Klebsiella pneumoniae [5]; in the assay on Talaromyces marneffei [6]; in [9]; in the assay on Aspergillus fumigatus [10]; in the assay with Pseudomonas aeruginosa [14]) was 11 mm each time. The “diameter of the inhibition zone (DIZ)” value in the assay on Escherichia coli [15] and in the assay with Aspergillus flavus [17] was 11 mm in each case.

On to `COc1ccc(C2=NN(c3nc(-c4ccc([N+](=O)[O-])cc4)cs3)C(c3ccc(-c4c(C)cccc4[N+](=O)[O-])o3)C2)cc1OC` (stereo not drawn), for which the MIC (in the assay on Talaromyces marneffei [1]; in the assay with Pseudomonas aeruginosa [2]; in the assay on Staphylococcus aureus [7]; in assay [8]; in the assay on Escherichia coli [11]; with Klebsiella pneumoniae [12]) was 12.5 µg/mL (≈ 20.4 µM) each time. Besides, the MIC with Aspergillus flavus [13] and in the assay with Aspergillus fumigatus [16] was 12.5 µg/mL (≈ 20.4 µM) each time. Moreover, the inhibition in [3] was 66%. Further, the “diameter of the inhibition zone (DIZ)” value (in the assay with Staphylococcus aureus [4]; in the assay on Klebsiella pneumoniae [5]; in the assay on Talaromyces marneffei [6]; in assay [9]; with Aspergillus fumigatus [10]; in the assay on Pseudomonas aeruginosa [14]) was 11 mm throughout. Also, the “diameter of the inhibition zone (DIZ)” value in the assay on Escherichia coli [15] and in the assay with Aspergillus flavus [17] was 11 mm throughout.

Regarding `CCC(C)n1ncn(-c2ccc(N3CCN(c4ccc(OCC5COC(Cn6cncn6)(c6ccc(Cl)cc6Cl)O5)cc4)CC3)cc2)c1=O` (stereo not drawn) [ITRACONAZOLE], the MIC was 6.25 µg/mL (≈ 8.86 µM) in the assay on Talaromyces marneffei [1], 6.25 µg/mL (≈ 8.86 µM) in [8], 1.56 µg/mL (≈ 2.21 µM) in the assay on Aspergillus flavus [13] and 6.25 µg/mL (≈ 8.86 µM) in the assay on Aspergillus fumigatus [16]. Besides, the “diameter of the inhibition zone (DIZ)” value was found to be 25 mm in the assay with Talaromyces marneffei [6], 23 mm in assay [9], 30 mm with Aspergillus fumigatus [10] and 22 mm in the assay on Aspergillus flavus [17].

Take `COc1ccc(C2=NN(c3nc(-c4ccc([N+](=O)[O-])cc4)cs3)C(c3ccc(-c4ccc(Cl)cc4)o3)C2)cc1OC` (stereo not drawn): the MIC (with Talaromyces marneffei [1]; with Pseudomonas aeruginosa [2]; in the assay with Staphylococcus aureus [7]; in [8]; in the assay on Escherichia coli [11]; with Klebsiella pneumoniae [12]) was 6.25 µg/mL (≈ 10.6 µM) each time. The MIC with Aspergillus flavus [13] and in the assay with Aspergillus fumigatus [16] was 6.25 µg/mL (≈ 10.6 µM) in each case. In [3], the inhibition was 35%. Further, the “diameter of the inhibition zone (DIZ)” value (with Staphylococcus aureus [4]; in the assay on Klebsiella pneumoniae [5]; in the assay with Talaromyces marneffei [6]; in assay [9]; with Aspergillus fumigatus [10]; with Pseudomonas aeruginosa [14]) was 16 mm in each case. For the same molecule, the “diameter of the inhibition zone (DIZ)” value in the assay with Escherichia coli [15] and with Aspergillus flavus [17] was 16 mm each time.

In the case of `COc1ccc(C2=NN(c3nc(-c4ccc([N+](=O)[O-])cc4)cs3)C(c3ccc(-c4ccc(F)c(Cl)c4)o3)C2)cc1OC` (stereo not drawn), the MIC (with Talaromyces marneffei [1]; in the assay on Pseudomonas aeruginosa [2]; in the assay with Staphylococcus aureus [7]; in assay [8]; in the assay on Escherichia coli [11]; in the assay with Klebsiella pneumoniae [12]) was 6.25 µg/mL (≈ 10.3 µM) in each case. The MIC with Aspergillus flavus [13] and in the assay with Aspergillus fumigatus [16] was 6.25 µg/mL (≈ 10.3 µM) each time. The inhibition in [3] came to 74%. The “diameter of the inhibition zone (DIZ)” value (in the assay with Staphylococcus aureus [4]; in the assay on Klebsiella pneumoniae [5]; in the assay on Talaromyces marneffei [6]; in assay [9]; with Aspergillus fumigatus [10]; with Pseudomonas aeruginosa [14]) was 16 mm in each case. Moreover, the “diameter of the inhibition zone (DIZ)” value in the assay on Escherichia coli [15] and in the assay with Aspergillus flavus [17] was 16 mm throughout.

For `COc1ccc(C2=NN(c3nc(-c4ccc([N+](=O)[O-])cc4)cs3)C(c3ccc(-c4ccc(Cl)cc4Cl)o3)C2)cc1OC` (stereo not drawn), the MIC (with Talaromyces marneffei [1]; in the assay on Pseudomonas aeruginosa [2]; in the assay on Staphylococcus aureus [7]; in [8]; in the assay on Escherichia coli [11]; with Klebsiella pneumoniae [12]) was 6.25 µg/mL (≈ 10.1 µM) throughout. Also, the MIC in the assay on Aspergillus flavus [13] and in the assay on Aspergillus fumigatus [16] was 6.25 µg/mL (≈ 10.1 µM) throughout. In addition, the inhibition in [3] was 86%. Further, the “diameter of the inhibition zone (DIZ)” value (with Staphylococcus aureus [4]; in the assay with Klebsiella pneumoniae [5]; in the assay with Talaromyces marneffei [6]; in assay [9]; in the assay on Aspergillus fumigatus [10]; in the assay with Pseudomonas aeruginosa [14]) was 16 mm throughout. The “diameter of the inhibition zone (DIZ)” value with Escherichia coli [15] and in the assay on Aspergillus flavus [17] was 16 mm each time.

On to `COc1ccc(-c2ccc(C3CC(c4ccc(OC)c(OC)c4)=NN3c3nc(-c4ccc([N+](=O)[O-])cc4)cs3)o2)c([N+](=O)[O-])c1` (stereo not drawn), for which the MIC (in the assay on Talaromyces marneffei [1]; with Pseudomonas aeruginosa [2]; in the assay on Staphylococcus aureus [7]; in [8]; against Escherichia coli [11]; in the assay with Klebsiella pneumoniae [12]) was 12.5 µg/mL (≈ 19.9 µM) each time. Besides, the MIC in the assay on Aspergillus flavus [13] and in the assay with Aspergillus fumigatus [16] was 12.5 µg/mL (≈ 19.9 µM) each time. In [3], the inhibition turned out to be 86%. Moreover, the “diameter of the inhibition zone (DIZ)” value (with Staphylococcus aureus [4]; in the assay on Klebsiella pneumoniae [5]; in the assay on Talaromyces marneffei [6]; in assay [9]; in the assay on Aspergillus fumigatus [10]; in the assay on Pseudomonas aeruginosa [14]) was 11 mm each time. The “diameter of the inhibition zone (DIZ)” value in the assay on Escherichia coli [15] and in the assay on Aspergillus flavus [17] was 11 mm in each case.

Regarding `CSc1ccc(C2CC(c3ccc(Cl)cc3)=NN2c2nc(-c3ccc([N+](=O)[O-])cc3)cs2)cc1` (stereo not drawn), the MIC (in the assay with Talaromyces marneffei [1]; in the assay on Pseudomonas aeruginosa [2]; in the assay with Staphylococcus aureus [7]; in [8]; against Escherichia coli [11]; in the assay with Klebsiella pneumoniae [12]) was 6.25 µg/mL (≈ 12.3 µM) in each case. Moreover, the MIC with Aspergillus flavus [13] and in the assay on Aspergillus fumigatus [16] was 6.25 µg/mL (≈ 12.3 µM) in each case. In assay [3], the inhibition stood at 38%. Also, the “diameter of the inhibition zone (DIZ)” value (in the assay on Staphylococcus aureus [4]; with Klebsiella pneumoniae [5]; in the assay with Talaromyces marneffei [6]; in [9]; in the assay with Aspergillus fumigatus [10]; in the assay on Pseudomonas aeruginosa [14]) was 16 mm in each case. For the same molecule, the “diameter of the inhibition zone (DIZ)” value with Escherichia coli [15] and in the assay on Aspergillus flavus [17] was 16 mm each time.

On to `O=C1O[C@H]([C@@H](O)CO)C(O)=C1O`, for which, in assay [3], the inhibition worked out at 96%.

Consider `CC1(C)S[C@@H]2[C@H](NC(=O)[C@H](N)c3ccccc3)C(=O)N2[C@H]1C(=O)O` [AMPICILLIN], for which the MIC in the assay on Pseudomonas aeruginosa [2] stood at 6.25 µg/mL (≈ 17.9 µM); in the assay with Staphylococcus aureus [7], 1.56 µg/mL (≈ 4.46 µM); against Escherichia coli [11], 6.25 µg/mL (≈ 17.9 µM); in the assay with Klebsiella pneumoniae [12], 6.25 µg/mL (≈ 17.9 µM). In addition, the “diameter of the inhibition zone (DIZ)” value in the assay on Staphylococcus aureus [4] is on record as 22 mm; in the assay with Klebsiella pneumoniae [5], 23 mm; in the assay with Pseudomonas aeruginosa [14] it was 25 mm; in the assay with Escherichia coli [15] it was 30 mm.

What is called inhibition is the change of the read-out against control, counted positive when it falls.
